Test results from ChEMBL document CHEMBL1141779, “Sesterterpenoids, terretonins A-D, and an alkaloid, asterrelenin, from Aspergillus terreus” (J Nat Prod, 2005).
Blank lines part the entries; values can stand above or below the compound they belong to.

Tests used:
[1] = Cytotoxicity against human Bre04 cells; format: functional
[2] = Cytotoxicity against human Lu04 cells; format: functional
[3] = Cytotoxicity against human N04 cells; format: functional
[4] = Inhibition of alpha-amylase
[5] = target: Sucrase-isomaltase, intestinal (Homo sapiens, UniProt P14410); assay: Inhibition of sucrase
Maltase-glucoamylase = Maltase-glucoamylase (Homo sapiens, UniProt O43451); assay: Inhibition of maltase
Maltase-glucoamylase, sequence (O43451 whole entry): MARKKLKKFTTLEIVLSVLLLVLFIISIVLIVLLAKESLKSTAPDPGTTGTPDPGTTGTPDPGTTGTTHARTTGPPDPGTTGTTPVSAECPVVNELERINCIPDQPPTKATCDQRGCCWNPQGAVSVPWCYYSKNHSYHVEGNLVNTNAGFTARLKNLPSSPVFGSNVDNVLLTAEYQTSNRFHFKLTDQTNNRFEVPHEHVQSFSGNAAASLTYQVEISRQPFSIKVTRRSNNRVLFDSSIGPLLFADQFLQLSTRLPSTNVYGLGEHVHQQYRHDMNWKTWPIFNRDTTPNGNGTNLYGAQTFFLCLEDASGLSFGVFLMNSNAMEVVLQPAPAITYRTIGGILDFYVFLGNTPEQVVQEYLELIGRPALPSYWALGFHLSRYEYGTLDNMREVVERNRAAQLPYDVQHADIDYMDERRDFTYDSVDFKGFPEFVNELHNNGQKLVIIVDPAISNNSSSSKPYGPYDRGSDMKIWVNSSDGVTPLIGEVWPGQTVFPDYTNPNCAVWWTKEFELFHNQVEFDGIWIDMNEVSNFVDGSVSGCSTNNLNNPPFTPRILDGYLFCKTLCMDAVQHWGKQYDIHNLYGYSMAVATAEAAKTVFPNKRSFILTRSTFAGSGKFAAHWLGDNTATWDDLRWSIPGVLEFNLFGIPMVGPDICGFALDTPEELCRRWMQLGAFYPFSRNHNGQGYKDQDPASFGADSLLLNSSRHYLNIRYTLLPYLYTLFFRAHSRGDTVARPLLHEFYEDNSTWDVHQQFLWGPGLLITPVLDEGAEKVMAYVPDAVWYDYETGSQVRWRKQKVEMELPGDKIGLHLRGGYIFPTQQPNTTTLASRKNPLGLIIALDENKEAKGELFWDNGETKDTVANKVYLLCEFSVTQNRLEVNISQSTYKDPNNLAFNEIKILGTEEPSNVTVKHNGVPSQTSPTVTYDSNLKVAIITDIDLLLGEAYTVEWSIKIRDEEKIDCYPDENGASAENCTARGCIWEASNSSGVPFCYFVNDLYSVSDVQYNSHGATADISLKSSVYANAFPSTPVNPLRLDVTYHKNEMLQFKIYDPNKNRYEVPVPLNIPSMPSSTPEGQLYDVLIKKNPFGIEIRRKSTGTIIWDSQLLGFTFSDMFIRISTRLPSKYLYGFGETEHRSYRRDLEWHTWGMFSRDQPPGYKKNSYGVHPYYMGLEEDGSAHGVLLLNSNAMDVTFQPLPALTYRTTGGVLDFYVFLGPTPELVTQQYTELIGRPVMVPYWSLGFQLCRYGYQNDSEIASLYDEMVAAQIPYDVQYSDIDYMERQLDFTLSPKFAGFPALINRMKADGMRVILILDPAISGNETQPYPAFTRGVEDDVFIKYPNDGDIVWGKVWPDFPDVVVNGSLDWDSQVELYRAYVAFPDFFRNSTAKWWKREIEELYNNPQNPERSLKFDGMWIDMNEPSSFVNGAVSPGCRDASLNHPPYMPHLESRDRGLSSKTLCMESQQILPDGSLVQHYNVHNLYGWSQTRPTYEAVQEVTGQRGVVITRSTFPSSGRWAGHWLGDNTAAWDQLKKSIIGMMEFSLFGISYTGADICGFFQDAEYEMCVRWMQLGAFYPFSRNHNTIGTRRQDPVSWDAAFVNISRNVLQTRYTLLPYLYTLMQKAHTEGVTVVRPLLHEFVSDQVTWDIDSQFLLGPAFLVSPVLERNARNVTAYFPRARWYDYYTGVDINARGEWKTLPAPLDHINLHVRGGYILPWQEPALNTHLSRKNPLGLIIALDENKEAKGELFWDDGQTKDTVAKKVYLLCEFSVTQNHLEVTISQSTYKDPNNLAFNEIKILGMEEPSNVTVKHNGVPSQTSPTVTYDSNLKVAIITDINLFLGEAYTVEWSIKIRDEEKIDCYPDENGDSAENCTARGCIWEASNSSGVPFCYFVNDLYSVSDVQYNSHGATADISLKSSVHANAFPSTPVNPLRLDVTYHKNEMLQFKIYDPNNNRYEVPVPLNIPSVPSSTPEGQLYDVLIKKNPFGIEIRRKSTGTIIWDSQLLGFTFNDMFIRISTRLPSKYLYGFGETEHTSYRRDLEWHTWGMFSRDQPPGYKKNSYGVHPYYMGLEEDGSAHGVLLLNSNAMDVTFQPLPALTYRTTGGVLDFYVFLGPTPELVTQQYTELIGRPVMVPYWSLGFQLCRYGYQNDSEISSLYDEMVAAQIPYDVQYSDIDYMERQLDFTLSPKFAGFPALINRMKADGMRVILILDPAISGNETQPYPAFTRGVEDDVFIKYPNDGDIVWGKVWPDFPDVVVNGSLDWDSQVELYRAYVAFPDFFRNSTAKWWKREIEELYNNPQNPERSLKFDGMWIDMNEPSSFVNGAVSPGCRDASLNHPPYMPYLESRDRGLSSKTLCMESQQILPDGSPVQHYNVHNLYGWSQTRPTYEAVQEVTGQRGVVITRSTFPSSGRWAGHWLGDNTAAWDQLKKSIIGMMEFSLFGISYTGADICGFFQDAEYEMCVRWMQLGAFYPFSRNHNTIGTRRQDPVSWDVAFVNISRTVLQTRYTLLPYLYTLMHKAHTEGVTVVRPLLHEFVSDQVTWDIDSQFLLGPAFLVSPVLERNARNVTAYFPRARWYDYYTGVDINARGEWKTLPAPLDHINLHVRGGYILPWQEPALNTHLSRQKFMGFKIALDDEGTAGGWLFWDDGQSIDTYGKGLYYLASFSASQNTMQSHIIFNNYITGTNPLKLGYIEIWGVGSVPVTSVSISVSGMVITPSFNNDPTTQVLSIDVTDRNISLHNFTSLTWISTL

Sucrase-isomaltase, intestinal, sequence (P14410 2-1007 limits assumed): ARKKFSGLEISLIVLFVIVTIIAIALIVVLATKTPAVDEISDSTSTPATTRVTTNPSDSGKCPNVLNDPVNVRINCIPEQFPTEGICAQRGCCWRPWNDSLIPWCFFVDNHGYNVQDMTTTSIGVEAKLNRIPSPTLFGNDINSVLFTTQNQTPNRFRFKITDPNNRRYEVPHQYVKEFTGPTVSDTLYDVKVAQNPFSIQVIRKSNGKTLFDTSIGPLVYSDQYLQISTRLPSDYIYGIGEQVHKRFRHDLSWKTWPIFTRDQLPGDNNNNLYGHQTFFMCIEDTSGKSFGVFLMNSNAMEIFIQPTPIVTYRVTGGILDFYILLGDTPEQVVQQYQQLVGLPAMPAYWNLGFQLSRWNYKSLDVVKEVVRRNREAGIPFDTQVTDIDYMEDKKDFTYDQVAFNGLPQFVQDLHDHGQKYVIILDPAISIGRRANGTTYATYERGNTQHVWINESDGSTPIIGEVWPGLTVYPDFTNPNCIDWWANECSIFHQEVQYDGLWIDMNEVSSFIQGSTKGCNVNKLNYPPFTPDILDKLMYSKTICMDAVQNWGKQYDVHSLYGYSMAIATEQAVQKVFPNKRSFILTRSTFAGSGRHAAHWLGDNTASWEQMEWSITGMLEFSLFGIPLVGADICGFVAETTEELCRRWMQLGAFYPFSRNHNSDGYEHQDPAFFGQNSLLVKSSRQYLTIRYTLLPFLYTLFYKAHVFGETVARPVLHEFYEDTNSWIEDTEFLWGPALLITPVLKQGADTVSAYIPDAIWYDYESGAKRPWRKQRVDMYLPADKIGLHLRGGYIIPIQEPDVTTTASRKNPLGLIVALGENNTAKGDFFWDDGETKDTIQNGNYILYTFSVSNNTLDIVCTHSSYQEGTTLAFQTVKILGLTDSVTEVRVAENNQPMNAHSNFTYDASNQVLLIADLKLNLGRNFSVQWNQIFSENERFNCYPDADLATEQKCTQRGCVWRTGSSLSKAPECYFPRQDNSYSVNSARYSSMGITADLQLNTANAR
Sucrase-isomaltase, intestinal, sequence (P14410 1008-1827 limits assumed): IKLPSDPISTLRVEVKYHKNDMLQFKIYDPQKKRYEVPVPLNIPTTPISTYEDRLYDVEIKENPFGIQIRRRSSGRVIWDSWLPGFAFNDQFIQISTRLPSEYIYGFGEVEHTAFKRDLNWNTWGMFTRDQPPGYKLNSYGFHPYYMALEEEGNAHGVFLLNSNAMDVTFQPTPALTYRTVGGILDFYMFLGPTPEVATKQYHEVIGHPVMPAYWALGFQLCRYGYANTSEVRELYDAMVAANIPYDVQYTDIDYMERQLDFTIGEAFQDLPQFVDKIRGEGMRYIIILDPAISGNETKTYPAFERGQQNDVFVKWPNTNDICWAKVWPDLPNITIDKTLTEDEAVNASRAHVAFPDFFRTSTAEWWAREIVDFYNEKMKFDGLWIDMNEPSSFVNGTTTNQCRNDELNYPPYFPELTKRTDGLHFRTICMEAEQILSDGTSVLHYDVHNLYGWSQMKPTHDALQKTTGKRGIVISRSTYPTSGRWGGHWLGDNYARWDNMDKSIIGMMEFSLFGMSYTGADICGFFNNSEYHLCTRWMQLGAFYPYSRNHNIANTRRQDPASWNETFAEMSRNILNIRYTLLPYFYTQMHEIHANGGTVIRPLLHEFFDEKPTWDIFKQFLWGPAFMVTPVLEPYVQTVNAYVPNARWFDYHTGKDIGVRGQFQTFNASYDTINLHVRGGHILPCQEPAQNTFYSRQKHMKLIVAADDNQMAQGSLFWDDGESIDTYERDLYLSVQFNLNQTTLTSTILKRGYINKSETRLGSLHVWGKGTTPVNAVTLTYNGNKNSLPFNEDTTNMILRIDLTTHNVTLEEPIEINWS

IC50 [4]: > 100 µg/mL | IC50 [5]: > 212 µM | IC50 (Maltase-glucoamylase): > 212 µM
Structure (SMILES): C=C1C[C@H]2[C@@](C)(C(=O)C(O)=C3C(C)(C)C(=O)CC[C@@]32C)[C@@H]2C(=O)O[C@@](C)(C(=O)OC)C(=O)[C@@]12C [TERRETONIN A]
GI50 [1]: > 100 µg/mL | GI50 [2]: > 100 µg/mL | GI50 [3]: > 100 µg/mL

Structure (SMILES): C=C1C[C@]2(O)[C@@]3(C)CCC(=O)C(C)(C)C3=C(O)C(=O)[C@@]2(C)[C@@H]2C(=O)O[C@@](C)(C(=O)OC)C(=O)[C@@]12C [TERRETONIN]
GI50 [1]: > 100 µg/mL | GI50 [2]: > 100 µg/mL | GI50 [3]: > 100 µg/mL | IC50 [4]: > 100 µg/mL | IC50 [5]: > 205 µM | IC50 (Maltase-glucoamylase): > 205 µM

Structure (SMILES): COc1cc(-c2cc3c(c(=O)o2)C[C@]2(O)[C@@]4(C)C(=O)C=CC(C)(C)[C@]4(O)CC[C@@]2(C)O3)cc2c1OCO2 [TERRITREM A]
GI50 [1]: > 100 µg/mL | GI50 [2]: > 100 µg/mL | GI50 [3]: > 100 µg/mL | IC50 [4]: > 100 µg/mL | IC50 [5]: > 196 µM | IC50 (Maltase-glucoamylase): > 196 µM
